Results taken from patent US9714247B2, “Multiple kinase pathway inhibitors” (Mannkind Corporation, priority 2012, dated 2017).
pEC50, pIC50: −log10 of the molar value. Like-named read-outs stand apart in the source and are kept apart here.

Tests used:
[1] = tested on: PLCγ2 phosphorylation in Ramos cells; test: PLCγ2 phosphorylation by flow cytometry; type: cell-based, human; details: Homo sapiens, flow cytometry, anti-phospho PLCγ2 (Tyr1217), four concentrations, read-out: Inhibition of phosphorylation of PLC-γ2 EC50
Method in brief: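 Ramos cells starved 18 h in 1% FBS, pretreated with inhibitor 2 h, then stimulated with anti-IgM (10 ug/ml final) plus 3.3 mM H2O2 for 2 min, then cross-linking F(ab) (10 ug/ml) plus H2O2 for 8 min. Fixed, permeabilized cells stained with PE anti-phospho-PLCγ2 (Tyr1217 or Tyr759), dead cells gated out; ED50 from geometric mean fluorescence over four inhibitor concentrations.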

[2] = biological target: T1, Lyn (Homo sapiens (Human), UniProt P07948); details: read-out: Lyn IC50
T1 sequence (P07948 whole entry): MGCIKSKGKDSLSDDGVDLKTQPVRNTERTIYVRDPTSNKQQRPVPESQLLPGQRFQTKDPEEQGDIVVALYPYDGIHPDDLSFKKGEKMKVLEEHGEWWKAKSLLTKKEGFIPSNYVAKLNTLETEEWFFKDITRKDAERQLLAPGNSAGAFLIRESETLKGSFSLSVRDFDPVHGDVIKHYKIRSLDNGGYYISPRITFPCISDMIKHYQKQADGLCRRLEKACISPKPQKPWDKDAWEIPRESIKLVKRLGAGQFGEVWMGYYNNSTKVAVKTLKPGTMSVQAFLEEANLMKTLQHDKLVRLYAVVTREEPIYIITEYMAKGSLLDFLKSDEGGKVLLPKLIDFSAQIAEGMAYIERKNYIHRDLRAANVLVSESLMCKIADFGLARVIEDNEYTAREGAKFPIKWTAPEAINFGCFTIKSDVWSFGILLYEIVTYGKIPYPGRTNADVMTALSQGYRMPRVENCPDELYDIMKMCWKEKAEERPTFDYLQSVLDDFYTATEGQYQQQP

[3] = tested on: DoHH2 cells; details: treated 24 hours
[4] = tested on: Ramos; test: CellTiter-Glo proliferation/viability assay; type: cell-based, human; details: Homo sapiens, Ramos
[5] = tested on: DoHH2; test: CellTiter-Glo proliferation/viability assay; type: cell-based, human; details: Homo sapiens, DOHH-2
[6] = tested on: phosphorylation of SFKs in Ramos cells; test: SFK phosphorylation (Tyr 416) by Western blotting; type: cell-based, human; details: pretreated 2 hours
Description: Ramos cell lysates from stimulated and unstimulated cells were analyzed for the levels of phosphorylated SRC family members. As described in Example 82 (above), cells were pretreated for 2 hours with an amino naphthyridinones and then stimulated with anti-IgM antibody and H2O2, protein lysates were prepared, quantified and used for Western blotting. A commercially available antibody that detects Src phosphorylated at Tyr 416 (Cell Signalling) and may cross-react with other Src family members such as Lyn, Fyn, Lck, Yes and Hck when phosphorylated at equivalent sites was used for Western blot analysis. The molecular weights of SFK family members are quite similar (in the 55-60 kDa range) and different family members cannot be resolved by the conditions used for the Western blot. […] The procedure can be similarly adapted for flow cytometric analysis as with the PLC-γ2 assay in Example 82. Ramos cells were incubated with Compound 1 for 2 hrs in RPMI media with 5% FBS prior to stimulation stimulated with H2O2/anti-IgM/F(Ab) for 10 minutes. Cells were evaluated by FACS analysis using anti-pSRC antibody and FITC-conjugated goat anti-rabbit secondary antibody following overnight storage at 4° C. in BD perm/wash buffer.

[7] = tested on: PLCγ2 phosphorylation in Ramos cells; test: PLCγ2 phosphorylation by Western blotting; type: cell-based, human; details: anti-IgM/H2O2 stimulation, Tyr1217
Description: Ramos cells were cultured in RPMI 1640 media with 10% FBS and were starved overnight (18 h) in 1% FBS containing media and on the next day pretreated with inhibitor for 2 h before stimulation. Cells were stimulated to induce BTK network dependent signal transduction pathways using mouse anti-human IgM (final concentration 10 ug/ml; Invitrogen) antibodies and 3.3 mM H2O2 mixture for 2 minutes followed by F(Ab) fragment that cross-linked the anti-IgM antibody (final concentration 10 ug/ml), and 3.3 mM H2O2 for 8 minutes. Cell lysates were prepared in lysis buffer containing protease and phosphatase inhibitors, quantified using the BCA protein assay kit (Pierce) and used for Western blotting. Antibodies specifically targeted to the molecules of interest, PLCγ2 phosphorylated at Tyr1217 and total PLCγ2, (Cell Signaling Technology) were used in a standard Western blotting procedure.
Phosphorylation of PLCγ2 at Tyr1217 along with Tyr753, Tyr759 and Tyr1197 is correlated with increased PLCγ2 activity. The readout for BTK network signaling was inhibition of phosphorylation of PLCγ2 induced by the anti-IgM treatment.

[8] = biological target: Src (Homo sapiens (Human), UniProt P12931); test: biochemical
Src, sequence (P12931 whole entry, looked up): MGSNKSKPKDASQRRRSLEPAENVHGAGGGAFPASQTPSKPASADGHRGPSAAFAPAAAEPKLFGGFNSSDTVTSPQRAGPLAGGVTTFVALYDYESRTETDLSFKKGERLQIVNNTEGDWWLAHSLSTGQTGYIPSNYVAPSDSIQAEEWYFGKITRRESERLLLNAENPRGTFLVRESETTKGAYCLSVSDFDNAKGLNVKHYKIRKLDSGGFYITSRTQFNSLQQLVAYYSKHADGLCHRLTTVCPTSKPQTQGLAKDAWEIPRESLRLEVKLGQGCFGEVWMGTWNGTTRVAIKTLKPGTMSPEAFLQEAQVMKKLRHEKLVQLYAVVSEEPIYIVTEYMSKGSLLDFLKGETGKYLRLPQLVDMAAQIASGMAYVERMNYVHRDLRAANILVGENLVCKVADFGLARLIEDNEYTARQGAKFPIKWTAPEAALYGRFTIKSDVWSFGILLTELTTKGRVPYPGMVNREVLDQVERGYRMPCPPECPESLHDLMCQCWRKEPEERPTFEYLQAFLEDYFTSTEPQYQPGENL

[9] = biological target: BTK (Homo sapiens (Human), UniProt Q06187)
BTK, sequence (Q06187 whole entry): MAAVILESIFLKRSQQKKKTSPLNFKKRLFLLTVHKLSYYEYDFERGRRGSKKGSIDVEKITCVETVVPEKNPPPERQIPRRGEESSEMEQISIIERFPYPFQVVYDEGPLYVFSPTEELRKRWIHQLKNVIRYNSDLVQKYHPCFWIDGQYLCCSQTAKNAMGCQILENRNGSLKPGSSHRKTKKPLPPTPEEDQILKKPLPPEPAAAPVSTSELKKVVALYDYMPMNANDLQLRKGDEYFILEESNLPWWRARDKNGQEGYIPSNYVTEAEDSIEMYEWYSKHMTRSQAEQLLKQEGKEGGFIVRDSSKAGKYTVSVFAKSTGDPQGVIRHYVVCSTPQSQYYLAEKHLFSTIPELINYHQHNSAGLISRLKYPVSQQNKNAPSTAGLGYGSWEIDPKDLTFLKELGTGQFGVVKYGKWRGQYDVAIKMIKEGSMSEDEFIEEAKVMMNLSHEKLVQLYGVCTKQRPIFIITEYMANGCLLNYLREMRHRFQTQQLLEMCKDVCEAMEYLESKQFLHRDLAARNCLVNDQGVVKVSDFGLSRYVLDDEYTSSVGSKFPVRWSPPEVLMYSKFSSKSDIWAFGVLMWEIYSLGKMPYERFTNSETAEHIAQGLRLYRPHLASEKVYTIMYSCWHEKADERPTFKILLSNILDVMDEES

[10] = biological target: T1, Lyn; test: biochemical
[11] = tested on: PC3; test: Proliferation/viability assay; type: cell-based; details: Homo sapiens, PC-3; Table 10; Prostate Ca; read-out: Effect on Tumor Cell Growth EC50, PC3
[12] = tested on: RPMI8226; test: Proliferation/viability assay; type: cell-based; details: Homo sapiens, RPMI-8226; Table 10; Myeloma; read-out: Effect on Tumor Cell Growth EC50, RPMI 8226
[13] = tested on: Ramos; details: cited from earlier work
[14] = tested on: DoHH2; details: cited from earlier work
[15] = tested on: SuDHL6; test: Proliferation/viability assay; type: cell-based; details: Homo sapiens, SU-DHL-6; Table 10; B Lymphoma; read-out: Effect on Tumor Cell Growth EC50, SuDHL6

SMILES | pEC50 [1] | pIC50 [2] | Effect on Cell Cycle [3] | pEC50 ([4]; 48 hrs, read-out: Ramos EC50) | pEC50 ([5]; 48 hrs, read-out: DoHH2 EC50) | pEC50 ([5]; Table 4, DoHH2 cells, read-out: EC50 (Proliferation)) | Inhibition of phosphorylation of SFKs (Western blot) [6] | Inhibition of PLCγ2 phosphorylation (Western blot) [7] | pIC50 [8] | pIC50 [9] | pIC50 ([9]; read-out: BTK IC50) | pIC50 [10] | pEC50 [11] | pEC50 [12] | Resistance of Ramos to known kinase inhibitors [13] | Response of DoHH2 to known drugs [14] | pEC50 [15] | pEC50 ([4]; Table 10, B Lymphoma, read-out: Effect on Tumor Cell Growth EC50, Ramos) | pEC50 ([5]; Table 10, B Lymphoma, read-out: Effect on Tumor Cell Growth EC50, DOHH2)
CCN(CC)CCOc1ccc(Nc2cc3c(cn2)cc(-c2ccccc2)c(=O)n3C2CCOCC2)nc1 [Compound 70, 7-(5-(2-(diethylamino)ethoxy)pyridin-2-ylamino)-3-phenyl-1-(tetrahydro-2H-pyran-4-yl)-1,6-naphthyridin-2(1H)-one] | 6.48 | 6.00 to 7.00 | G1 Arrest | < 5.00 | > 6.00 | > 6.00 | dose-dependent decrease of phosphorylation of SFKs | observed this inhibition | 6.00 to 7.00 | 6.00 to 7.00 | 6.00 to 7.00 | 6.00 to 7.00 | – | – | – | – | – | – | –
C=CC(=O)N1CCC[C@@H](n2nc(-c3ccc(Oc4ccccc4)cc3)c3c(N)ncnc32)C1 [PCI-32765, ibrutinib] | – | – | – | – | – | – | – | – | – | – | – | – | < 5.00 | < 5.00 | resistant | responds | 5.26 | < 5.00 | 5.55
